Test system: vesicular stomatitis virus particles (VSV) pseudotyped with EboV Zaire GP
Test: microbe, parasite or virus in culture
Type: cell-based
Settings: Vesicular stomatitis virus

Structure (SMILES) | IC50
COC(=O)c1cccc(Oc2cc(Cl)cc(CN3CCN(C(=O)CNC(=O)CC45CC6CC(CC(C6)C4)C5)CC3)c2)c1 [Compound 1322, Methyl 3-(3-((4-((2-((1R,3R,5S)-adamantan-1-yl)acetyl)glycyl)piperazin-1-yl)methyl)-5-chlorophenoxy)benzoate] | 11 nM
O=C(CC12CC3CC(C1)C(C3)C2)NCC(=O)N1CCN(Cc2cc(Cl)cc(OC(F)(F)F)c2)CC1 [Compound 1330] | 1510 nM
O=C(CC1CCC(F)(F)CC1)NCC(=O)N1CCN(Cc2cc(F)ccc2OCc2ccc3nonc3c2)CC1 [Compound 1456] | 190 nM
[2H]C([2H])(c1cc(Cl)ccc1NCc1ccc(F)cn1)N1CCN(C(=O)CNC(=O)[C@@H]2CC23CCC(F)(F)CC3)CC1 [Compound 1582] | 240 nM
COC(=O)c1ccc(COc2ccccc2CN2CCN(C(=O)CNC(=O)Cc3ccc(F)cc3)CC2)cc1 [Compound 1312, Methyl 4-((2-((4-((2-(4-fluorophenyl)acetyl)glycyl)piperazin-1-yl)methyl)phenoxy)methyl)benzoate] | 600 nM
O=C(CC12CC3CC(CC(O)(C3)C1)C2)NCC(=O)N1CCN(Cc2ccccc2OCc2ccc(Br)cc2)CC1 [Compound 1244] | 500 nM
COC(=O)c1ccc(COc2ccc(F)cc2CN2CCN(C(=O)CNC(=O)CC3CCC(F)(F)CC3)CC2)cc1 [Compound 1335, Methyl 4-((2-((4-((2-(4,4-difluorocyclohexyl)acetyl)glycyl)piperazin-1-yl)methyl)-4-fluorophenoxy)methyl)benzoate] | 18 nM
Nc1ccc(Br)cc1CN1CCN(C(=O)CNC(=O)CC2CCC(F)(F)CC2)CC1 [Compound 1355, N-(2-(4-(2-Amino-5-bromobenzyl)piperazin-1-yl)-2-oxoethyl)-2-(4,4-difluorocyclohexyl)acetamide] | 1740 nM
COC(=O)c1ccc(COc2ccccc2CN2CCN(C(=O)CNC(=O)CC34CC5CC(C3)CC(C(=O)O)(C5)C4)CC2)cc1 [Compound 1277, (1s,3r,5R,7S)-3-(2-((2-(4-(2-((4-(Methoxycarbonyl)benzyl)oxy)benzyl)piperazin-1-yl)-2-oxoethyl)amino)-2-oxoethyl)adamantane-1-carboxylic acid] | > 2000 nM
O=C(CC1CCC(F)(F)CC1)NCC(=O)N1CCN(Cc2cc(Cl)cc(F)c2F)CC1 [Compound 1369, N-(2-(4-(5-Chloro-2,3-difluorobenzyl)piperazin-1-yl)-2-oxoethyl)-2-(4,4-difluorocyclohexyl)acetamide] | > 2000 nM
O=C(NCC(=O)N1CCN(Cc2cc(Cl)cc3cn[nH]c23)CC1)C1CC12CCC(F)(F)CC2 (stereo not drawn) [Compound 1421, N-(2-(4-((5-Chloro-JH-indazol-7-yl)methyl)piperazin-1-yl)-2-oxoethyl)-6,6-difluorospiro[2.5]octane-1-carboxamide] | > 5000 nM
Nc1cc(Br)cc(CN2CCN(C(=O)CNC(=O)CC34CC5CC(CC(C5)C3)C4)CC2)c1 [Compound 1341, 2-((1R,3R,5S)-Adamantan-1-yl)-N-(2-(4-(3-amino-5-bromobenzyl)piperazin-1-yl)-2-oxoethyl)acetamide] | 320 nM
O=C(CC1CCC(F)(F)CC1)NCC(=O)N1CCN(Cc2cccc(Cl)c2Cl)CC1 [Compound 1382, N-(2-(4-(2,3-Dichlorobenzyl)piperazin-1-yl)-2-oxoethyl)-2-(4,4-difluorocyclohexyl)acetamide] | > 2000 nM
Nc1ccc(Br)cc1CN1CCN(C(=O)CNC(=O)C2C3CC(F)(F)CC32)CC1 (stereo not drawn) [Compound 1362, N-(2-(4-(2-Amino-5-bromobenzyl)piperazin-1-yl)-2-oxoethyl)-3,3-difluorobicyclo[3.1.0]hexane-6-carboxamide] | > 2000 nM
O=C(CC1CCC(F)(F)CC1)NCC(=O)N1CCN(Cc2ccc(F)c(Cl)c2F)CC1 [Compound 1408] | 4000 nM
COC(=O)c1ccc(COc2ccc(F)cc2CN2CCN(C(=O)CNC(=O)CC34CC5CC(CC(C5)C3)C4)CC2)cc1 [Compound 1112] | < 2000 nM
O=C(CC1CCC(F)(F)CC1)NCC(=O)N1CCN(Cc2cccc(Oc3ccccn3)c2)CC1 [Compound 1451] | > 5000 nM
O=C(CC12CC3CC(C1)CC(c1ccccc1)(C3)C2)NCC(=O)N1CCN(Cc2ccccc2OCc2ccc(Br)cc2)CC1 [Compound 1141] | 700 nM
O=C(CC12CC3CC(CC(C3)C1)C2)NCC(=O)N1CCN(Cc2cc(Cl)cc(Br)c2)CC1 [Compound 1332, 2-((1R,3R,5S)-Adamantan-1-yl)-N-(2-(4-(3-bromo-5-chlorobenzyl)piperazin-1-yl)-2-oxoethyl)acetamide] | 900 nM
COC(=O)c1cccc(-c2cc(Cl)cc(CN3CCN(C(=O)CNC(=O)CC45CC6CC(C4)C(C6)C5)CC3)c2)c1 [Compound 1441] | 248 nM
O=C(NCC(=O)N1CCN(Cc2cc(Cl)ccc2O)CC1)C1CC1c1ccc(F)cc1 (stereo not drawn) [Compound 1425, N-(2-(4-(5-Chloro-2-hydroxybenzyl)piperazin-1-yl)-2-oxoethyl)-2-(4-fluorophenyl)cyclopropane-1-carboxamide] | 3400 nM

Structure (SMILES) | IC50
O=C(CC12CC3CC(CC(Cl)(C3)C1)C2)NCC(=O)N1CCN(Cc2ccccc2OCc2ccc(Br)cc2)CC1 [Compound 1243] | 500 nM
Nc1ccc(CN2CCN(C(=O)CNC(=O)CC3CCC(F)(F)CC3)CC2)cc1Cl [Compound 1387, N-(2-(4-(4-Amino-3-chlorobenzyl)piperazin-1-yl)-2-oxoethyl)-2-(4,4-difluorocyclohexyl)acetamide] | > 5000 nM
NC(=O)c1ccc(COc2ccccc2CN2CCN(C(=O)CNC(=O)CC34CC5CC(CC(C5)C3)C4)CC2)cc1 [Compound 1260] | 700 nM
Nc1ccc(CN2CCN(C(=O)CNC(=O)CC34CC5CC(CC(C5)C3)C4)CC2)cc1Cl [Compound 1250] | 800 nM
O=C(CC1CCC(F)(F)CC1)NCC(=O)N1CCN(Cc2cc(Cl)cc(OC3CC3)c2)CC1 [Compound 1365, N-(2-(4-(3-Chloro-5-cyclopropoxybenzyl)piperazin-1-yl)-2-oxoethyl)-2-(4,4-difluorocyclohexyl)acetamide] | 1600 nM
O=C(NCC(=O)N1CCN(Cc2cc(Cl)ccc2NCc2ncco2)CC1)[C@@H]1CC12CCC(F)(F)CC2 [Compound 1585] | 1300 nM
CS(=O)(=O)c1ccc(COc2ccc(Cl)cc2CN2CCN(C(=O)CNC(=O)C3CC34CCC(F)(F)CC4)CC2)nc1 (stereo not drawn) [Compound 1621, 6,6-Difluoro-spiro[2.5]octane-1-carboxylic acid (2-{4-[5-chloro-2-(5-methanesulfonyl-pyridin-2-ylmethoxy)-benzyl]-piperazin-1-yl}-2-oxo-ethyl)-amide] | 30 nM
N#Cc1cc(Br)cc(CN2CCN(C(=O)CNC(=O)CC34CC5CC(CC(C5)C3)C4)CC2)c1 [Compound 1348, 2-((1R,3R,5S)-Adamantan-1-yl)-N-(2-(4-(3-bromo-5-cyanobenzyl)piperazin-1-yl)-2-oxoethyl)acetamide] | 1300 nM
O=C(NCC(=O)N1CCN(Cc2cccc3cccnc23)CC1)C1CC12CCC(F)(F)CC2 (stereo not drawn) [Compound 1420, 6,6-Difluoro-N-(2-oxo-2-(4-(quinolin-8-ylmethyl)piperazin-1-yl)ethyl)spiro[2.5]octane-1-carboxamide] | 490 nM
CC(C)(CC(=O)NCC(=O)N1CCN(Cc2ccccc2OCc2ccc(Br)cc2)CC1)C1CCCCC1 [Compound 1138] | > 2000 nM
O=C(CC1CCC(F)(F)CC1)NCC(=O)N1CCN(Cc2cccc3ccncc23)CC1 [Compound 1427] | 2450 nM
CNS(=O)(=O)c1ccc(COc2ccccc2CN2CCN(C(=O)CNC(=O)CC34CC5CC(CC(C5)C3)C4)CC2)cc1 [Compound 1257] | 300 nM
COC(=O)c1ccc(COc2ccccc2CN2CCN(C(=O)CNC(=O)C3(F)CC3)CC2)cc1 [Compound 1376, Methyl 4-((2-((4-((1-fluorocyclopropane-1-carbonyl)glycyl)piperazin-1-yl)methyl)phenoxy)methyl)benzoate] | > 2000 nM
O=C(CC12CC3CC(CC(C3)C1)C2)NCC(=O)N1CCN(Cc2cc(OC3CC3)ccc2F)CC1 [Compound 1354, 2-((1R,3R,5S)-Adamantan-1-yl)-N-(2-(4-(5-cyclopropoxy-2-fluorobenzyl)piperazin-1-yl)-2-oxoethyl)acetamide] | > 2000 nM
O=C(CC12CC3CC(CC(C3)C1)C2)NCC(=O)N1CCN(Cc2cc(Cl)ccc2O)CC1 [Compound 1249, 2-((1R,3R,5S)-Adamantan-1-yl)-N-(2-(4-(5-chloro-2-hydroxybenzyl)piperazin-1-yl)-2-oxoethyl)acetamide] | 200 nM
C#Cc1ccc(F)c(CN2CCN(C(=O)CNC(=O)CC34CC5CC(CC(C5)C3)C4)CC2)c1 [Compound 1352, 2-((1R,3R,5S)-Adamantan-1-yl)-N-(2-(4-(5-ethynyl-2-fluorobenzyl)piperazin-1-yl)-2-oxoethyl)acetamide] | 1700 nM
O=C(CC12CC3CC(CC(C3)C1)C2)NCC(=O)N1CCN(Cc2cc(F)cc(Br)c2)CC1 [Compound 1339, 2-((1R,3R,5S)-Adamantan-1-yl)-N-(2-(4-(3-bromo-5-fluorobenzyl)piperazin-1-yl)-2-oxoethyl)acetamide] | 1400 nM
CC(=O)Nc1ccc(COc2ccc(F)cc2CN2CCN(C(=O)CNC(=O)CC34CC5CC(C3)C(C5)C4)CC2)cc1 [Compound 1445] | 710 nM
O=C(CC12CC3CC(CC(C3)C1)C2)NCC(=O)N1CCN(Cc2cc(Cl)cc(Cl)c2Cl)CC1 [Compound 1350, 2-((1R,3R,5S)-adamantan-1-yl)-N-(2-oxo-2-(4-(2,3,5-trichlorobenzyl)piperazin-1-yl)ethyl)acetamide] | 800 nM
COC(=O)c1ccc(COc2ccc(Cl)cc2CN2CCN(C(=O)CNC(=O)C3CC3(F)F)CC2)cc1 (stereo not drawn) [Compound 1357, Methyl 4-((4-chloro-2-((4-((2,2-difluorocyclopropane-1-carbonyl)glycyl)piperazin-1-yl)methyl)phenoxy)methyl)benzoate] | 500 nM

Same assay, conditions: read-out: IC50

Structure (SMILES) | IC50
CC(=O)Nc1ccc(Cl)cc1CN1CCN(C(=O)CNC(=O)CC23CC4CC(CC(C4)C2)C3)CC1 [Compound 1342, N-(2-(4-(2-Acetamido-5-chlorobenzyl)piperazin-1-yl)-2-oxoethyl)-2-((3s)-adamantan-1-yl)acetamide] | 1100 nM

Reference: US11629139B2 (priority 2017, dated 2023)
